Experimental data as given in patent publication US6632831B2, “Branched chain amino acid-dependent aminotransferase inhibitors and their use in the treatment of neurodegenerative diseases” (Pfizer Inc., priority 2001, dated 2003).
“And” between values parts separate entries of the source, which are not always exact repeats. Identical values can stand only once.

What was measured:
[1] = target: T1, human Branched Chain Amino Acid Aminotransferase cytosolic form (hBCATc) (Homo sapiens, UniProt P54687); experiment: In vitro coupled enzyme assay, hBCATc; format: biochemical; settings: 37° C., 25 mM phosphate buffer pH 7.8; coupled glutamate dehydrogenase assay; read-out: hBCATc I50
T1 construct: inferred from purification on a Ni-charged chelating column with imidazole elution; made in house; host or cells: E. coli BL21(DE3)
T1 sequence (P54687 1-386): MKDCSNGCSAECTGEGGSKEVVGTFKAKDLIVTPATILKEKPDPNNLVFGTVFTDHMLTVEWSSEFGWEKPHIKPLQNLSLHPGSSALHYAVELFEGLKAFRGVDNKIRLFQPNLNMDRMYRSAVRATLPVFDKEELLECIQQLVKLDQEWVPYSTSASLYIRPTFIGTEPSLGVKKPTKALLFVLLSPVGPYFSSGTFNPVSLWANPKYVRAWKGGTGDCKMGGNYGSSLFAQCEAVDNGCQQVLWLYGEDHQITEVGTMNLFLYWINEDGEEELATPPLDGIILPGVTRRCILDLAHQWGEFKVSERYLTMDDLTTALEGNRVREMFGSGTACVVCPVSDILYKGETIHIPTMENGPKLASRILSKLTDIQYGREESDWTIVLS
Method: In vitro enzyme assay—human Branched Chain Amino Acid Aminotransferase cytosolic form (hBCATc) and mitochondrial form (hBCATm) were assayed at 37° C. in 25 mM phosphate buffer pH 7.8. In addition, 2 mM DTT and 12.5 mM EDTA were added to the assay mixture. A coupling enzyme assay was used to monitor the production of glutamate. The formation of NADH from NAD+at […] was followed on a 96-well plate Molecular Devices plate reader. The following components were used in this coupled assay: 4 mM ADP, 1 mM NAD+, 750 μM L-Leucine, 500 μM (α-ketoglutarate, 10 μM pyridoxal phosphate, 1 unit glutamate dehydrogenase, and 1.25 μg of the appropriate BCAT enzyme. Inhibitions by compounds were assayed by adding various concentrations to this coupled assay procedure as a DMSO stock up to a 5% v/v DMSO/buffer ratio. Data is shown in Table 1.
Enzyme Preparation—humanBCATc was expressed in BL21(DE3) cells. A growing culture of cells was induced with 1 mM IPTG at room temperature overnight. These cells were harvested by centrifugation at 10,000 g for 20 minutes. The supernatant was discarded, and the cells were stored at −80° C. until needed. The protein was purified by the following method. The cell paste was resuspended in extraction buffer (0.1 M phosphate, pH 8.0, with 0.01 M Tris-HCL and 5 mM TCEP and then lysed on a French Press at 1000 psi. The lysate was centrifuged at 10,000 g for 15 minutes, and the pellet was discarded. The supernatant was loaded onto a Hitrap Chelating column previously charged with 0.1 M NiSO4 and washed with 3 to 4 column volumes of extraction buffer. The column was then washed with 0.01 Tris, pH 7.5, 10% glycerol, 150 mM NaCl, 5 mM TCEP for two column volumes. The column was then further washed with two column volumes of 0.1 M phosphate, pH 6.0, 0.01 M Tris, 10% glycerol and 750 mM NaCl. Finally, the column was washed with two column volumes of the same buffer plus 50 mM imidazole. The BCAT enzyme was then eluted with the same buffer but with 350 mM imidazole. The eluant was then dialyzed overnight against 10 mM phosphate buffer pH 8.0, 10% glycerol, and 5 mM TCEP. The dialyzed protein was then loaded onto a Q-sepharose column and eluted using a salt gradient. Active fractions were collected and further purified on a Superose-12 column to yield pure BCAT protein.

melting point [°C]	IC50 [1]	SMILES
198.8 to 199.4	27.6 µM	COC(=O)/C=C1\SC(Nc2cc(Cl)ccc2Cl)=NC1=O [Example 12, [2-(2,5-Dichloro-phenylamino)-4-oxo-4H-thiazol-5-ylidene]-acetic Acid Methyl Ester]
204.8 to 205.6	–	CONC(=O)/C=C1\SC(Nc2c(Cl)cccc2Cl)=NC1=O (hydrate or solvate) [Example 10, [2-(2,6-Dichloro-phenylamino)-4-oxo-4H-thiazol-5-ylidene]-N-methoxy-acetamide]
> 230	18.6 µM and 13.1 µM	O=C(O)/C=C1\SC(Nc2c(Cl)cccc2Cl)=NC1=O [Example 5, [2-(2,6-Dichloro-phenylamino)-4-oxo-4H-thiazol-5-ylidene]-acetic Acid]
241.3 to 241.7	16.6 µM	COC(=O)/C=C1\SC(Nc2c(Cl)cc(Cl)cc2Cl)=NC1=O [Example 14, [2-(2,4,6-Trichloro-phenylamino)-4-oxo-4H-thiazol-5-ylidene]-acetic Acid Methyl Ester]
189.1 to 189.7	–	COC(=O)/C=C1\SC(Nc2c(Cl)cccc2Cl)=NC1=O (hydrate or solvate) [Example 1, [2-(2,6-Dichloro-phenylamino)-4-oxo-4H-thiazol-5-ylidene]-acetic Acid Methyl Ester]
211.6 to 212.3	30.1 µM	COC(=O)/C=C1\SC(Nc2ccc(Cl)cc2Cl)=NC1=O [Example 11, [2-(2,4-Dichloro-phenylamino)-4-oxo-4H-thiazol-5-ylidene]-acetic Acid Methyl Ester]
> 230	–	CCCNC(=O)/C=C1\SC(Nc2c(Cl)cccc2Cl)=NC1=O (hydrate or solvate) [Example 8, [2-(2,6-Dichloro-phenylamino)-4-oxo-4H-thiazol-5-ylidene]-N-propyl-acetamide]
> 250	–	CCNC(=O)/C=C1\SC(Nc2c(Cl)cccc2Cl)=NC1=O (hydrate or solvate) [Example 7, [2-(2,6-Dichloro-phenylamino)-4-oxo-4H-thiazol-5-ylidene]-N-ethyl-acetamide]
204.8 to 205.6	33 µM and 24 µM	O=C(/C=C1\SC(Nc2c(Cl)cccc2Cl)=NC1=O)NCc1ccccc1 [Example 9, [2-(2,6-Dichloro-phenylamino)-4-oxo-4H-thiazol-5-ylidene]-N-benzyl-acetamide]
> 230	–	CNC(=O)/C=C1\SC(Nc2c(Cl)cccc2Cl)=NC1=O (hydrate or solvate) [Example 6, [2-(2,6-Dichloro-phenylamino)-4-oxo-4H-thiazol-5-ylidene]-N-methyl-acetamide]
204 to 204.3	18.7 µM	COC(=O)/C=C1\SC(Nc2cccc(Cl)c2Cl)=NC1=O [Example 13, [2-(2,3-Dichloro-phenylamino)-4-oxo-4H-thiazol-5-ylidene]-acetic Acid Methyl Ester]
185 to 185.8	–	CCOC(=O)/C=C1\SC(Nc2c(Cl)cccc2Cl)=NC1=O (hydrate or solvate) [Example 2, [2-(2,6-Dichloro-phenylamino)-4-oxo-4H-thiazol-5-ylidene]-acetic Acid Ethyl Ester]
194 to 194.6	19.5 µM	COC(=O)/C=C1\SC(Nc2ccccc2Cl)=NC1=O [Example 15, [2-(2-Chloro-phenylamino)-4-oxo-4H-thiazol-5-ylidene]-acetic Acid Methyl Ester]
> 230	–	CC(C)(C)OC(=O)/C=C1\SC(Nc2c(Cl)cccc2Cl)=NC1=O (hydrate or solvate) [Example 3, [2-(2,6-Dichloro-phenylamino)-4-oxo-4H-thiazol-5-ylidene]-acetic Acid Tert-butyl Ester]
200.7 to 201.2	–	COC(=O)/C=C1\SC(Nc2ccccc2C)=NC1=O (hydrate or solvate) [Example 4, [2-(2-Methyl-phenylamino)-4-oxo-4H-thiazol-5-ylidene]-acetic Acid Methyl Ester]
–	68.6 µM and 36.9 µM	CC(C)(C)OC(=O)/C=C1\SC(Nc2c(Cl)cccc2Cl)=NC1=O [Example 3, [2-(2,6-Dichloro-phenylamino)-4-oxo-4H-thiazol-5-ylidene]-acetic Acid Tert-butyl Ester]
